The first experiment deals with T1, human ghrelin receptor (GRLN, growth hormone secretagogue receptor, hGHS-R1a) (Homo sapiens, UniProt Q92847).
T1 construct: purchased PerkinElmer BioSignal #RBHGHSM, lot#1887; host or cells: HEK-293 cells, stably transfected (membranes)
T1 sequence (Q92847 whole entry): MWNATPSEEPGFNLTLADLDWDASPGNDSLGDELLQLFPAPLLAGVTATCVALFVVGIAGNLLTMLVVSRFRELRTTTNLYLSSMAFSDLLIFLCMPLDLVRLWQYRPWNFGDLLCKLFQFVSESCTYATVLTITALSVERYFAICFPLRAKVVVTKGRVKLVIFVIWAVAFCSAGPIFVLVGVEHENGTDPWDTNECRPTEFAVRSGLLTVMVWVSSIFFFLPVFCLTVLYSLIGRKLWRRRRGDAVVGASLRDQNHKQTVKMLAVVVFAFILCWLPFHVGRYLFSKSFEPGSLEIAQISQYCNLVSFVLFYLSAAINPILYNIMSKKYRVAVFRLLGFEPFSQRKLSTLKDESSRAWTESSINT
In words: Competitive radioligand binding assay (ghrelin receptor), Method B1.
Details: not given
The method, then:
Multiscreen Harvest plates-GF/C (Millipore, #MAHFC1H60) • 4. […] Bottom seal (Millipore, #MATAH0P00) • 7. […] Binding Buffer: 25 mM Hepes (pH 7.4), 1 mM CaCl2, 5 mM MgCl2. 2.5 mM EDTA, 0.4% BSA
Competition experiments were performed in a 300 μl filtration assay format. • 1. 220 μL of membranes diluted in binding buffer • 2. 40 μL of compound diluted in binding buffer • 3.
Compounds were provided frozen on dry ice at a stock concentration of 10 mM diluted in 100% DMSO and stored at −80° C. until the day of testing. On the test day, compounds were allowed to thaw at rt overnight and then diluted in assay buffer according to the desired test concentrations. Under these conditions, the maximal final DMSO concentration in the assay was 0.1%.
Plates were sealed with TopSeal-A, vortexed gently and incubated at rt for 30 min. The reaction was arrested by filtering samples through Multiscreen Harvest plates (pre-soaked in 0.5% polyethyleneimine) using a Tomtec Harvester, washed 9 times with 500 μL of cold 50 mM Tris-HCl (pH 7.4, 4° C.), and then plates were air-dried in a fumehood for 30 min. A bottom seal was applied to the plates prior to the addition of 25 μL of MicroScint-0 to each well. Plates were than sealed with TopSeal-A and counted for 30 sec per well on a TopCount Microplate Scintillation and Luminescence Counter (PerkinElmer) using a count delay of 60 sec. Results were expressed as counts per minute (cpm).
Data were analyzed by GraphPad Prism (GraphPad Software, San Diego, Calif.) using a variable slope non-linear regression analysis. […] Dmax values were calculated using the following formula: […]
With `CCC(C)[C@@H]1NCCOc2ccccc2CC[C@@H](C)NC(=O)[C@@H](Cc2ccccc2)NC(=O)[C@H](C(C)O)N(C)C1=O` (stereo partly shown) [Compound 1342], the IC50 fell in the range of 1 to 10 nM and the Ki was in the range of 1 to 10 nM.

As to `CC[C@H](C)[C@@H]1NC/C=C/c2ccccc2CCCNC(=O)[C@@H](Cc2ccccc2)NC(=O)[C@H]([C@H](C)O)N(C)C1=O` [Compound 1346], the IC50 was greater than 500 nM and the Ki was 100 to 500 nM.

Staying with this experiment, now noted: Ghrelin receptor binding activity, Method B1.
For the compound `CCC(C)[C@@H]1NC[C@@H](C)Oc2ccccc2CCCNC(=O)[C@@H](Cc2ccccc2)NC(=O)[C@H](C(C)O)N(C)C1=O` (stereo partly shown) [Compound 1301], the Ki was 100 to 500 nM.

The compound `CC(O)[C@H]1C(=O)N[C@H](Cc2ccccc2)C(=O)NC/C=C/c2ccccc2OCCN[C@@H](CO)C(=O)N1C` (stereo partly shown) [Compound 1305] came in with a Ki greater than 500 nM.

Compound `CCC(C)[C@@H]1NCCOc2cccnc2CCCNC(=O)[C@@H](Cc2ccccc2)NC(=O)[C@H](C(C)O)N(C)C1=O` (stereo partly shown) [Compound 1311] registered a Ki greater than 500 nM.

`CCC(C)[C@@H]1NC[C@@H](C)Oc2ccccc2/C=C/CNC(=O)[C@@H](Cc2ccccc2)NC(=O)[C@H](C(C)O)N(C)C1=O` (stereo partly shown) [Compound 1313] registered an IC50 of 10 to 100 nM and a Ki of 10 to 100 nM.

With `CCC(C)[C@@H]1NC[C@H](C)Oc2ccccc2/C=C/CNC(=O)[C@@H](Cc2ccccc2)NC(=O)[C@H](C(C)O)N(C)C1=O` (stereo partly shown) [Compound 1314], the IC50 fell in the range of 100 to 500 nM and the Ki fell in the range of 100 to 500 nM.

`CC(O)[C@H]1C(=O)N[C@H](Cc2ccccc2)C(=O)NC/C=C/c2ccccc2OCCN[C@@H](C2CCCC2)C(=O)N1C` (stereo partly shown) [Compound 1320] had an IC50 of 10 to 100 nM and a Ki of 10 to 100 nM.

Compound `CCC(C)[C@H]1C(=O)N(C)[C@@H](C(C)O)C(=O)N[C@H](Cc2ccccc2)C(=O)NC/C=C/c2ccccc2OCCN1C` (stereo partly shown) [Compound 1323] registered a Ki of 10 to 100 nM.

For `CCC(C)[C@@H]1NCCOc2ccccc2/C=C/CNC(=O)[C@@H](Cc2ccc(N)cc2)NC(=O)[C@H](C(C)O)N(C)C1=O` (stereo partly shown) [Compound 1328], the IC50 was 100 to 500 nM and the Ki lay within 10 to 100 nM.

For the compound `CCC(C)[C@@H]1NCCOc2ccccc2/C=C/CNC(=O)[C@@H](Cc2c[nH]cn2)NC(=O)[C@H](C(C)O)N(C)C1=O` (stereo partly shown) [Compound 1329], the IC50 was in the range of 100 to 500 nM and the Ki lay within 10 to 100 nM.

For the compound `CCC(C)[C@@H]1NCCOc2ccccc2/C=C/CNC(=O)[C@@H](Cc2ccncc2)NC(=O)[C@H](C(C)O)N(C)C1=O` (stereo partly shown) [Compound 1330], the IC50 lay in the range of 100 to 500 nM and the Ki was 10 to 100 nM.

Consider `CCC(C)[C@@H]1NCCOc2ccccc2/C=C/CNC(=O)[C@@H](Cc2ccco2)NC(=O)[C@H](C(C)O)N(C)C1=O` (stereo partly shown) [Compound 1331], for which the IC50 was 10 to 100 nM and the Ki fell in the range of 10 to 100 nM.

Consider `CCC(C)[C@@H]1NCCOc2ccccc2C[C@@H](O)CNC(=O)[C@@H](Cc2ccccc2)NC(=O)[C@H](C(C)O)N(C)C1=O` (stereo partly shown) [Compound 1339], for which the IC50 lay in the range of 100 to 500 nM and the Ki lay in the range of 100 to 500 nM.

With `CCC(C)[C@@H]1NCCOc2cc(F)ccc2CC[C@H](C)NC(=O)[C@@H](Cc2ccccc2)NC(=O)[C@H](C(C)O)N(C)C1=O` (stereo partly shown) [Compound 1344], the Ki lay within 10 to 100 nM.

Turning to `CC(O)[C@H]1C(=O)N[C@H](Cc2ccccc2)C(=O)N[C@@H](C)CCc2ccccc2OCCN[C@@H](C2CC2)C(=O)N1C` (stereo partly shown) [Compound 1345], the IC50 lay in the range of 100 to 500 nM and the Ki fell in the range of 10 to 100 nM.

In turn, `CCC(C)[C@@H]1N[C@H](C)COc2ccccc2CCCNC(=O)[C@@H](Cc2ccccc2)NC(=O)[C@H](C(C)O)N(C)C1=O` (stereo partly shown) [Compound 1347] came in with an IC50 of 100 to 500 nM and a Ki of 100 to 500 nM.

Compound `CCC(C)[C@@H]1N[C@@H](C)COc2ccccc2CCCNC(=O)[C@@H](Cc2ccccc2)NC(=O)[C@H](C(C)O)N(C)C1=O` (stereo partly shown) [Compound 1348] gave an IC50 greater than 500 nM and a Ki of 100 to 500 nM.

In turn, `CCC(C)[C@@H]1NCCOc2ccccc2CCC(C(F)(F)F)NC(=O)[C@@H](Cc2ccccc2)NC(=O)[C@H](C(C)O)N(C)C1=O` (stereo partly shown) [Compound 1349] displayed a Ki of 10 to 100 nM.

In turn, `CC(C)C1NCCOc2cc(F)ccc2C=CCNC(=O)C(C(C)c2ccccc2)NC(=O)C(C(C)O)N(C)C1=O` (stereo not shown) [Compound 1689] came in with an IC50 of 10 to 100 nM.

In turn, `CCCC1CCc2ccccc2OCCNC(C(C)C)C(=O)N(C)C(C(C)O)C(=O)NC(Cc2ccccc2)C(=O)N1` (stereo not shown) [Compound 1694] had an IC50 greater than 500 nM.

For `CC(C)C1CCc2ccccc2OCCNC(C(C)C)C(=O)N(C)C(C(C)O)C(=O)NC(Cc2ccccc2)C(=O)N1` (stereo not shown) [Compound 1695], the IC50 was in the range of 100 to 500 nM.

Compound `CCCC1CCc2ccccc2OCCNC(C(C)C)C(=O)N(C)C(C(C)O)C(=O)NC(Cc2cccc(F)c2)C(=O)N1` (stereo not shown) [Compound 1696] displayed an IC50 greater than 500 nM.

With `CCCC1CCc2ccccc2OCCNC(C(C)C)C(=O)N(C)C(C(C)O)C(=O)NC(Cc2c[nH]c3ccccc23)C(=O)N1` (stereo not shown) [Compound 1697], the IC50 is 100 to 500 nM.

Compound `CC(C)C1CCc2ccccc2OCCNC(C(C)C)C(=O)N(C)C(C(C)O)C(=O)NC(Cc2c[nH]c3ccccc23)C(=O)N1` (stereo not shown) [Compound 1698] registered an IC50 of 10 to 100 nM.

`CCC1CCc2ccc(F)cc2OC(C)CNC(C2(C)CC2)C(=O)N(C)C(C(C)O)C(=O)NC(Cc2c[nH]c3ccccc23)C(=O)N1` (stereo not shown) [Compound 1706]: the IC50 fell in the range of 100 to 500 nM.

The compound `CC(C)[C@@H]1NCCOc2ccccc2CC[C@H](C(C)C)NC(=O)[C@@H](Cc2cccc(F)c2)NC(=O)[C@H](C(C)O)N(C)C1=O` (stereo partly shown) [Compound 1708] came in with a concentration for half-maximal inhibition (IC50) of 100 to 500 nM.

Compound `CC[C@@H]1C#Cc2ccc(Cl)cc2OCCN[C@@H](C(C)C)C(=O)N(C)[C@@H](C(C)O)C(=O)N[C@H](Cc2c[nH]c3ccccc23)C(=O)N1` (stereo partly shown) [Compound 1709] registered an IC50 of 10 to 100 nM.

In the case of `CCC(C)[C@@H]1NCCO[C@H]2CCC[C@H]2CCCNC(=O)[C@@H](Cc2ccc(Cl)cc2)NC(=O)[C@H](C(C)O)N(C)C1=O` (stereo partly shown) [Compound 1714], the IC50 lay within 1 to 10 nM.

`CCC(C)[C@@H]1NCCO[C@H]2CCCC[C@H]2CCCNC(=O)[C@@H](Cc2ccc(Cl)cc2)NC(=O)[C@H](C(C)O)N(C)C1=O` (stereo partly shown) [Compound 1715] showed an IC50 of 1 to 10 nM.

`CC[C@@H]1CCc2ccc(F)cc2O[C@H](C)CN[C@@H](C2(C)CC2)C(=O)N(C)[C@@H](C(C)O)C(=O)N[C@H](Cc2cccc(F)c2)C(=O)N1` (stereo partly shown) [Compound 1721] returned an IC50 of 100 to 500 nM.

As to `CC[C@@H]1CCc2c(F)cccc2OCCN[C@@H](C(C)C)C(=O)N(C)[C@@H](C(C)O)C(=O)N[C@H](Cc2ccccc2)C(=O)N1` (stereo partly shown) [Compound 1722], the IC50 was in the range of 10 to 100 nM.

For `CC[C@@H]1CCc2c(F)cccc2OCCN[C@@H](C(C)C)C(=O)N(C)[C@@H](C(C)O)C(=O)N[C@H](Cc2cccc(F)c2)C(=O)N1` (stereo partly shown) [Compound 1724], the IC50 was 10 to 100 nM.

`CC[C@@H]1CCc2ccc(OC)cc2OCCN[C@@H](C(C)C)C(=O)N(C)[C@@H](C(C)O)C(=O)N[C@H](Cc2c[nH]c3ccccc23)C(=O)N1` (stereo partly shown) [Compound 1727] had an IC50 greater than 500 nM.

The compound `CC(O)[C@H]1C(=O)N[C@H](Cc2ccc(Cl)cc2)C(=O)NC/C=C/c2ccccc2OCCN[C@@H](C2CC2)C(=O)N1C` (stereo partly shown) [Compound 1728] came in with an IC50 of 10 to 100 nM.

As to `CC(C)C[C@@H]1NCCOc2ccccc2/C=C/CNC(=O)[C@@H](Cc2ccc(Cl)cc2)NC(=O)[C@H](C(C)O)N(C)C1=O` (stereo partly shown) [Compound 1731], the IC50 lay within 100 to 500 nM.

Regarding `CC(O)[C@H]1C(=O)N[C@H](Cc2ccc(Cl)cc2)C(=O)NC/C=C/c2ccccc2OCCN[C@@H](CC(C)(C)C)C(=O)N1C` (stereo partly shown) [Compound 1733], the IC50 was in the range of 100 to 500 nM.

Compound `CCC(C)C1NCCOc2ccccc2C=CCNC(=O)C(Cc2ccc(OC)cc2)NC(=O)C(C(C)O)N(C)C1=O` (stereo not shown) [Compound 1735] had a half-inhibitory concentration (IC50) of 10 to 100 nM.

Compound `CCC(C)C1NCCOc2ccccc2C=CCNC(=O)C(Cc2ccc(C)cc2)NC(=O)C(C(C)O)N(C)C1=O` (stereo not shown) [Compound 1736] returned an IC50 of 10 to 100 nM.

In turn, `CC(O)[C@H]1C(=O)N[C@H](Cc2ccc(Cl)cc2)C(=O)N[C@@H](C)CCc2ccccc2O[C@H](C)CN[C@@H](C2CC2)C(=O)N1C` (stereo partly shown) [Compound 1741] returned an IC50 greater than 500 nM.

`CC(O)[C@H]1C(=O)N[C@H](Cc2ccc(Cl)cc2)C(=O)N[C@H](C)CCc2ccccc2OCCN[C@@H](C2CCCCC2)C(=O)N1C` (stereo partly shown) [Compound 1744] displayed an IC50 greater than 500 nM.

In turn, `CC[C@@H]1CCc2ccccc2O[C@H](C)CN[C@@H](C2(C)CC2)C(=O)N(C)[C@@H](C(C)O)C(=O)N[C@H](Cc2c[nH]c3ccccc23)C(=O)N1` (stereo partly shown) [Compound 1756] showed an IC50 of 10 to 100 nM.

`CC[C@@H]1CCc2ccc(F)cc2OCCN[C@@H](CC(C)(C)C)C(=O)N(C)[C@@H](C(C)O)C(=O)N[C@H](Cc2c[nH]c3ccccc23)C(=O)N1` (stereo partly shown) [Compound 1764] gave an IC50 greater than 500 nM.

In turn, `CC1CCc2ccccc2OCCNC(C(C)(C)C)C(=O)N(C)C(C(C)O)C(=O)NC(Cc2ccc(Cl)cc2)C(=O)N1` (stereo not shown) [Compound 1800] displayed an IC50 of 10 to 100 nM.

For `CC(=O)OC(C)C1C(=O)NC(Cc2ccccc2)C(=O)NCC=Cc2ccccc2OCCNC(C(C)C)C(=O)N1C` (stereo not shown) [Compound 1841], the IC50 is greater than 500 nM.

A word on the IC50: it is the concentration that inhibits the measured activity by half. Low readings indicate inhibition by little substance, high ones a need for much substance. Usually Ki stands for the equilibrium dissociation constant of an inhibitor or competing ligand from its target. High values mean lower affinity, low ones higher affinity.

The values above are taken from patent publication US20110105389A1 (priority 2009, published 2011).
